Values joined by “and” are separate entries in the source; they are usually repeats but may differ in a detail not shown here. Identical values can stand only once.
Key:
Assay in all cases: AHAS product feedback inhibition assay (leucine, isoleucine, valine)
Type in all cases: biochemical, Camelina sativa
[1] = tested on: AHAS, enzyme extract of SRS 934; details: for % activity (AHAS activity as % of control): control 100 mM pyruvate, no added amino acid, per experiment (Exp. 1-3); for % activity (AHAS activity as % of control), means: means of 3 experiments; for Absorbance at 530 nm (AHAS product feedback inhibition assay, raw data), Avg: average of replicates per experiment; for Absorbance at 530 nm (AHAS product feedback inhibition assay, raw data): individual replicates, experiments 1-3
Experimental: (§1) Briefly, for each of the three comparators, leaf and stem (petiole) material was bulk-harvested at the 3-4 leaf stage from at least 30 plantlets, snap-frozen in liquid nitrogen, and stored at −80° C. The AHAS in vitro assay was conducted according to the method of Singh et al (1988), with modifications by Yu (2010) and Rustgi (2014). For each comparator, 4 grams of frozen material were ground to a fine powder with a mortar and pestle in liquid nitrogen and homogenized in 1 volume of cold extraction buffer containing 100 mM potassium phosphate buffer (pH7.5), 10 mM sodium pyruvate, 5 mM MgCl2, 100 μM flavin adenine dinucleotide (FAD), and 10% glycerol. Four 2-mL microcentrifuge tubes were used for each comparator. The homogenate was centrifuged at 13,000 rpm for 10 min at 4° C., supernatant collected and re-centrifuged for an additional 10 minutes under the same conditions. For each tube, 1 mL of supernatant was pipetted into a new 2-mL microcentrifuge tube, and protein was precipitated by the addition of 1 mL of saturated ammonium sulfate. The solution was mixed well by vortex and allowed to stand on ice for 20 minutes, then centrifuged at 13,000 rpm at 4° C. The protein pellet was resuspended in 300 μL of reaction buffer containing 50 mM potassium phosphate buffer (pH7.5), 100 mM sodium pyruvate, 10 mM MgCl2, 1 mM EDTA, 10 μM FAD, 100 mM NaCl, and 1 mM thiamine pyrophosphate. Tubes of each comparator were combined, mixed well, kept on ice and immediately used in the AHAS activity and feedback inhibition assays.
(§2) Total protein concentration of the crude extract was determined by the Bradford method (Bradford, 1976). All assays were conducted using 300 μg of total protein each.
(§3) The feedback inhibition assay was performed by combining equal amounts of extract and amino acids leucine, isoleucine, or valine, respectively, in concentrations of 0.1 mM, 1 mM, 10 mM and 100 mM, according to Yu et al. (2010). The reaction mixture contained 50 μL enzyme extract and 50 μL 100 mM sodium pyruvate and inhibitor amino acid. The reaction was incubated at 37° C. for 60 minutes, then stopped and acetolactate converted to acetoin with the addition of 20 μL of 6 N H2SO4 and incubated at 60° C. for 15 minutes. A separate background “blank” was included for each sample group by adding 20 μL of 6 N H2SO4 prior to the addition of the enzyme extracts. Then, 95 μL of 0.55% w/v creatine solution and 95 μL of α-naphthol solution (5.5% w/v in 5 N NaOH) were added and the mixture incubated at 60° C. for a further 15 minutes. After cooling to room temperature for 15 minutes, enzyme activity was determined colorimetrically by reading the absorbance at 530 nm. Three independent experiments were conducted. Experiment 1 and 2 each contained 2 technical replicates, while experiment 3 included 3 technical replicates.

[2] = tested on: AHAS, enzyme extract of MIDAS™; details: for % activity (AHAS activity as % of control): control 100 mM pyruvate, no added amino acid, per experiment (Exp. 1-3); for % activity (AHAS activity as % of control), means: means of 3 experiments; for Absorbance at 530 nm (AHAS product feedback inhibition assay, raw data), Avg: average of replicates per experiment; for Absorbance at 530 nm (AHAS product feedback inhibition assay, raw data): individual replicates, experiments 1-3
Experimental: as §1, §2, §3

[3] = tested on: AHAS, enzyme extract of 14CS0851-01-14; details: for % activity (AHAS activity as % of control): control 100 mM pyruvate, no added amino acid, per experiment (Exp. 1-3); for % activity (AHAS activity as % of control), means: means of 3 experiments; for Absorbance at 530 nm (AHAS product feedback inhibition assay, raw data), Avg: average of replicates per experiment; for Absorbance at 530 nm (AHAS product feedback inhibition assay, raw data): individual replicates, experiments 1-3; for sensitivity of AHAS to feedback inhibition, comparison of enzyme extracts: extracts of 14CS0851-01-14, SRS 934 and MIDAS™ compared, 1 mM, 10 mM, 100 mM
Experimental: as §1, §2, §3

[4] = 1 mM amino acid final concentration
[5] = 10 mM amino acid final concentration
[6] = 100 mM amino acid final concentration

Absorbance at 530 nm (AHAS product feedback inhibition assay, raw data), Avg [1, 4] | Absorbance at 530 nm (AHAS product feedback inhibition assay, raw data), Avg [1, 5] | Absorbance at 530 nm (AHAS product feedback inhibition assay, raw data), Avg [1, 6] | Absorbance at 530 nm (AHAS product feedback inhibition assay, raw data), Avg [2, 4] | Absorbance at 530 nm (AHAS product feedback inhibition assay, raw data), Avg [2, 5] | Absorbance at 530 nm (AHAS product feedback inhibition assay, raw data), Avg [2, 6] | Absorbance at 530 nm (AHAS product feedback inhibition assay, raw data), Avg [3, 4] | Absorbance at 530 nm (AHAS product feedback inhibition assay, raw data), Avg [3, 5] | Absorbance at 530 nm (AHAS product feedback inhibition assay, raw data), Avg [3, 6] | sensitivity of AHAS to feedback inhibition, comparison of enzyme extracts [3] | Structure (SMILES) | Absorbance at 530 nm (AHAS product feedback inhibition assay, raw data) [1, 4] | Absorbance at 530 nm (AHAS product feedback inhibition assay, raw data) [1, 5] | Absorbance at 530 nm (AHAS product feedback inhibition assay, raw data) [1, 6] | Absorbance at 530 nm (AHAS product feedback inhibition assay, raw data) [2, 4] | Absorbance at 530 nm (AHAS product feedback inhibition assay, raw data) [2, 5] | Absorbance at 530 nm (AHAS product feedback inhibition assay, raw data) [2, 6] | Absorbance at 530 nm (AHAS product feedback inhibition assay, raw data) [3, 4] | Absorbance at 530 nm (AHAS product feedback inhibition assay, raw data) [3, 5] | Absorbance at 530 nm (AHAS product feedback inhibition assay, raw data) [3, 6] | further results
– | – | – | – | – | – | – | – | – | – | CC(C)[C@H](N)C(=O)O [Val] | – | – | – | – | – | – | – | – | – | % activity (AHAS activity as % of control) ([1]; 1 mM final concentration): 58.3% and 47.9% and 78.7%; % activity (AHAS activity as % of control), means ([1]; 1 mM final concentration): 61.7%; % activity (AHAS activity as % of control) ([1]; 10 mM final concentration): 46.5% and 47.0% and 77.8%; % activity (AHAS activity as % of control), means ([1]; 10 mM final concentration): 57.1%; % activity (AHAS activity as % of control) ([1]; 100 mM final concentration): 41.0% and 35.4% and 61.7%; % activity (AHAS activity as % of control), means ([1]; 100 mM final concentration): 46.1%; % activity (AHAS activity as % of control) ([2]; 1 mM final concentration): 55.6% and 49.8% and 71.2%; % activity (AHAS activity as % of control), means ([2]; 1 mM final concentration): 58.9%; % activity (AHAS activity as % of control) ([2]; 10 mM final concentration): 48.0% and 47.5% and 67.0%; % activity (AHAS activity as % of control), means ([2]; 10 mM final concentration): 54.2%; % activity (AHAS activity as % of control) ([2]; 100 mM final concentration): 40.7% and 37.8% and 58.2%; % activity (AHAS activity as % of control), means ([2]; 100 mM final concentration): 45.6%; % activity (AHAS activity as % of control) ([3]; 1 mM final concentration): 51.0% and 49.1% and 88.5%; % activity (AHAS activity as % of control), means ([3]; 1 mM final concentration): 62.8%; % activity (AHAS activity as % of control) ([3]; 10 mM final concentration): 46.9% and 45.0% and 76.1%; % activity (AHAS activity as % of control), means ([3]; 10 mM final concentration): 56.0%; % activity (AHAS activity as % of control) ([3]; 100 mM final concentration): 35.5% and 34.8% and 66.2%; % activity (AHAS activity as % of control), means ([3]; 100 mM final concentration): 45.5%
0.2535 and 0.224 and 0.115 | 0.234 and 0.187 and 0.093 | 0.186 and 0.156 and 0.069 | 0.327 and 0.238 and 0.141 | 0.2675 and 0.192 | 0.195 and 0.077 | 0.296 and 0.229 and 0.105 | 0.209 and 0.186 and 0.088 | 0.182 and 0.145 and 0.061 | no significant difference | CC[C@H](C)[C@H](N)C(=O)O [isoleucine] | 0.251 and 0.256 and 0.245 and 0.203 and 0.120 and 0.111 and 0.114 | 0.233 and 0.235 and 0.219 and 0.154 and 0.091 and 0.089 and 0.100 | 0.196 and 0.176 and 0.177 and 0.134 and 0.065 and 0.069 and 0.073 | 0.306 and 0.348 and 0.271 and 0.204 and 0.136 and 0.138 and 0.149 | 0.275 and 0.208 and 0.176 and 0.100 and 0.107 and 0.102 | 0.194 and 0.176 and 0.149 and 0.080 and 0.075 and 0.078 | 0.305 and 0.287 and 0.238 and 0.220 and 0.106 and 0.104 | 0.217 and 0.201 and 0.200 and 0.171 and 0.087 and 0.082 and 0.094 | 0.188 and 0.176 and 0.70 and 0.120 and 0.061 and 0.072 and 0.052 | –
0.231 and 0.181 and 0.094 | 0.184 and 0.179 and 0.093 | 0.1625 and 0.142 and 0.070 | 0.2475 and 0.203 and 0.117 | 0.214 and 0.191 and 0.112 | 0.1815 and 0.166 and 0.089 | 0.213 and 0.207 and 0.080 | 0.196 and 0.178 and 0.073 | 0.1485 and 0.155 and 0.057 | no significant difference | CC(C)[C@H](N)C(=O)O [valine] | 0.236 and 0.226 and 0.198 and 0.163 and 0.086 and 0.098 and 0.100 | 0.186 and 0.182 and 0.206 and 0.151 and 0.091 (2×) and 0.096 | 0.168 and 0.157 and 0.184 and 0.100 and 0.071 and 0.072 and 0.067 | 0.252 and 0.243 and 0.239 and 0.166 and 0.115 and 0.116 and 0.122 | 0.205 and 0.223 and 0.217 and 0.113 and 0.110 and 0.112 | 0.174 and 0.189 and 0.171 and 0.161 and 0.084 and 0.091 and 0.092 | 0.216 and 0.21 and 0.227 and 0.187 and 0.079 and 0.080 and 0.082 | 0.203 and 0.189 and 0.190 and 0.166 and 0.057 and 0.84 and 0.80 | 0.155 and 0.142 and 0.176 and 0.133 and 0.054 and 0.061 and 0.056 | –
